Test results reported in ChEMBL document CHEMBL5724914, “Linking interpersonal differences in gut microbiota composition and drug biotransformation activity” (2024).

Tests used:
[1] = (§1) The drug is tested on WLS-220 corresponding to human gut metagenome with ENA study accession number: PRJEB37062 and ENA sample accession number: ERS12561769 for biotransformation under anaerobic condition. The drug concentrations were measured over 9 timepoints collected between 0 and 24 hours of incubation by liquid-chromatography-coupled mass spectrometry (LC–MS); details: 2 µM
[2] = as §1, with “WLS-027” for “WLS-220”, “ERS12561744” for “ERS12561769”; details: 2 µM
[3] = as §1, with “WLS-010” for “WLS-220”, “ERS12561743” for “ERS12561769”; details: 2 µM
[4] = as §1, with “WLS-006” for “WLS-220”, “ERS12561741” for “ERS12561769”; details: 2 µM
[5] = human gut metagenome, 24 h, 2 µM
[6] = human gut metagenome, 24 h, 2 µM; remark: listed apart in the source
[7] = human gut metagenome, 24 h, 2 µM; remark: listed apart in the source
[8] = human gut metagenome, 24 h, 2 µM; remark: listed apart in the source
[9] = human gut metagenome, 24 h, 2 µM; remark: listed apart in the source
Also: call rule not given here.

Structure (SMILES)	Bacterial Biotransformation [1]	Bacterial Biotransformation [2]	Bacterial Biotransformation [3]	Bacterial Biotransformation [4]	Bacterial Biotransformation [5]	Bacterial Biotransformation [6]	Bacterial Biotransformation [7]	Bacterial Biotransformation [8]	Bacterial Biotransformation [9]
CN(C)C(=O)Oc1cccc([N+](C)(C)C)c1.[Br-] [NEOSTIGMINE BROMIDE]	Compound NOT metabolized	Compound NOT metabolized	Compound NOT metabolized	Compound NOT metabolized	Compound NOT metabolized	Compound NOT metabolized	Compound NOT metabolized	Compound NOT metabolized	Compound NOT metabolized
CCOc1cc(CC(=O)N[C@@H](CC(C)C)c2ccccc2N2CCCCC2)ccc1C(=O)O [REPAGLINIDE]	Compound metabolized	Compound metabolized	Compound metabolized	Compound metabolized	Compound metabolized	Compound metabolized	Compound metabolized	Compound metabolized	Compound metabolized
COC(=O)[C@H](c1ccccc1Cl)N1CCc2sccc2C1.O=S(=O)(O)O [CLOPIDOGREL BISULFATE]	Compound metabolized	Compound NOT metabolized	Compound metabolized	Compound metabolized	Compound metabolized	Compound metabolized	Compound metabolized	Compound metabolized	Compound metabolized
COc1ccc(Cc2nccc3cc(OC)c(OC)cc23)cc1OC [PAPAVERINE]	Compound metabolized	Compound metabolized	Compound metabolized	Compound NOT metabolized	Compound NOT metabolized	Compound metabolized	Compound metabolized	Compound metabolized	Compound metabolized
CCN(C(C)=O)c1cccc(-c2ccnc3c(C#N)cnn23)c1 [ZALEPLON]	Compound metabolized	Compound metabolized	Compound metabolized	Compound metabolized	Compound metabolized	Compound metabolized	Compound metabolized	Compound metabolized	Compound metabolized
CC(C)(C)NCC(O)c1cc(Cl)c(N)c(Cl)c1 (stereo unspecified) [CLENBUTEROL]	Compound NOT metabolized	Compound NOT metabolized	Compound NOT metabolized	Compound NOT metabolized	Compound NOT metabolized	Compound NOT metabolized	Compound NOT metabolized	Compound NOT metabolized	Compound NOT metabolized
CCc1oc2ccccc2c1C(=O)c1cc(Br)c(O)c(Br)c1 [BENZBROMARONE]	Compound metabolized	Compound metabolized	Compound metabolized	Compound metabolized	Compound metabolized	Compound metabolized	Compound metabolized	Compound metabolized	Compound metabolized
Cc1ccccc1C(OCCN(C)C)c1ccccc1.O=C(O)CC(O)(CC(=O)O)C(=O)O (stereo unspecified) [ORPHENADRINE CITRATE]	Compound NOT metabolized	Compound NOT metabolized	Compound metabolized	Compound metabolized	Compound metabolized	Compound metabolized	Compound NOT metabolized	Compound NOT metabolized	Compound NOT metabolized
O=C1CN2Cc3c(ccc(Cl)c3Cl)N=C2N1 [ANAGRELIDE]	Compound metabolized	Compound NOT metabolized	Compound metabolized	Compound metabolized	Compound metabolized	Compound NOT metabolized	Compound NOT metabolized	Compound metabolized	Compound NOT metabolized
Clc1cccc(Cl)c1N=C1NCCN1 [CLONIDINE]	Compound metabolized	Compound NOT metabolized	Compound metabolized	Compound metabolized	Compound NOT metabolized	Compound metabolized	Compound metabolized	Compound metabolized	Compound NOT metabolized
CC(=O)O[C@]1(C(C)=O)CC[C@H]2[C@@H]3C=C(C)C4=CC(=O)CC[C@]4(C)[C@H]3CC[C@@]21C [MEGESTROL ACETATE]	Compound metabolized	Compound metabolized	Compound metabolized	Compound metabolized	Compound metabolized	Compound metabolized	Compound metabolized	Compound metabolized	Compound metabolized
CCOc1ccccc1OCCN[C@H](C)Cc1ccc(OC)c(S(N)(=O)=O)c1.Cl [TAMSULOSIN HYDROCHLORIDE]	Compound NOT metabolized	Compound NOT metabolized	Compound NOT metabolized	Compound metabolized	Compound NOT metabolized	Compound NOT metabolized	Compound NOT metabolized	Compound NOT metabolized	Compound NOT metabolized
COc1ccc2c(c1)c(CC(=O)O)c(C)n2C(=O)c1ccc(Cl)cc1 [INDOMETHACIN]	Compound metabolized	Compound metabolized	Compound metabolized	Compound metabolized	Compound metabolized	Compound metabolized	Compound metabolized	Compound metabolized	Compound NOT metabolized
O=C(O)CCC(=O)O.O=C(O[C@H]1CN2CCC1CC2)N1CCc2ccccc2[C@@H]1c1ccccc1 [SOLIFENACIN SUCCINATE]	Compound NOT metabolized	Compound metabolized	Compound metabolized	Compound metabolized	Compound NOT metabolized	Compound NOT metabolized	Compound NOT metabolized	Compound metabolized	Compound metabolized
CCN(CC)CCOC(=O)C1(C2CCCCC2)CCCCC1 [DICYCLOMINE]	Compound NOT metabolized	Compound metabolized	Compound metabolized	Compound metabolized	Compound NOT metabolized	Compound metabolized	Compound metabolized	Compound metabolized	Compound metabolized
CC(C)(C)NC[C@H](O)COc1nsnc1N1CCOCC1.O=C(O)/C=C\C(=O)O [TIMOLOL MALEATE]	Compound NOT metabolized	Compound NOT metabolized	Compound NOT metabolized	Compound NOT metabolized	Compound NOT metabolized	Compound NOT metabolized	Compound NOT metabolized	Compound NOT metabolized	Compound NOT metabolized
CC[C@@]1(O)C(=O)OCc2c1cc1n(c2=O)Cc2cc3c(CN(C)C)c(O)ccc3nc2-1 [TOPOTECAN]	Compound NOT metabolized	Compound NOT metabolized	Compound NOT metabolized	Compound NOT metabolized	Compound NOT metabolized	Compound NOT metabolized	Compound NOT metabolized	Compound NOT metabolized	Compound NOT metabolized
CC(C)(C)NCC(O)COc1cccc2c1CC(O)C(O)C2 (stereo unspecified) [NADOLOL]	Compound NOT metabolized	Compound NOT metabolized	Compound NOT metabolized	Compound NOT metabolized	Compound NOT metabolized	Compound NOT metabolized	Compound metabolized	Compound metabolized	Compound NOT metabolized
CN(C)C(=O)Oc1cc(OC(=O)N(C)C)cc(C(O)CNC(C)(C)C)c1 (stereo unspecified) [BAMBUTEROL]	Compound metabolized	Compound NOT metabolized	Compound NOT metabolized	Compound metabolized	Compound metabolized	Compound NOT metabolized	Compound NOT metabolized	Compound metabolized	Compound NOT metabolized
